# Results as given in patent US9895077B2, “Method for diagnosing a brain related disorder using brain network activity patterns” (Elminda Ltd., priority 2010, dated 2018).
# Experiments:
# Type in all cases: in vivo, human
# ADHD subjects = assay: BNA pattern similarity from EEG data of ADHD subjects before and following treatment with MPH
# Text: The BNA patterns shown in FIGS. 6A-D are associated subject-specific BNA patterns constructed from EEG data recorded from a particular ADHD subject. The black dots in FIGS. 6A-D show the locations of the EEG electrodes. The color codes in these BNA patterns are the same as defined above. The subject-specific BNA patterns shown in FIGS. 6A-B describe the association of the ADHD subject to a group of untreated ADHD subjects, and the BNA patterns shown in FIGS. 6C-D describe the association of the ADHD subject to a group of ADHD subjects all treated with methylphenidate (MPH). The subject-specific BNA patterns shown in FIGS. 6A and 6C are based on EEG data recorded from the ADHD subject before any treatment, and subject-specific BNA patterns shown in FIGS. 6B and 6D are based on EEG data recorded from the ADHD subject following a treatment with MPH.
# The baseline annotated BNA pattern constructed from the group of untreated ADHD subjects, and the baseline annotated BNA pattern constructed from the same group of subjects, but following treatment with MPH are shown in FIGS. 6E and 6F, respectively.
# A BNA pattern similarity was calculated for each of the subject-specific BNA patterns shown in FIGS. 6A-D. The calculated similarity corresponding to the BNA pattern of FIG. 6A is 0.73, the calculated similarity corresponding to the BNA pattern of FIG. 6B is 0.19, the calculated similarity corresponding to the BNA pattern of FIG. 6C is 0.56, and the calculated similarity corresponding to the BNA pattern of FIG. 6D is 0.6.
# The BNA patterns shown in FIGS. 7A-D were constructed from EEG data recorded from a different ADHD subject, which was also treated with MPH according to the same protocol as described above with respect to the responder subject of FIGS. 6A-D. The black dots in FIGS. 7A-D show the locations of the EEG electrodes, and the color codes in these BNA patterns is the same as defined above. Thus, the subject-specific BNA patterns shown in FIGS. 7A-B describe the association of the ADHD subject to a group of untreated ADHD subjects, and the BNA patterns shown in FIGS. 7C-D describe the association of the ADHD subject to a group of ADHD subjects all treated with methylphenidate (MPH). The subject-specific BNA patterns shown in FIGS. 7A and 7C are based on EEG data recorded from the ADHD subject before any treatment, and subject-specific BNA patterns shown in FIGS. 7B and 7D are based on EEG data recorded from the ADHD subject following a treatment with MPH.
# A BNA pattern similarity was calculated for each of the subject-specific BNA patterns shown in FIGS. 7A-D. The calculated similarity corresponding to the BNA pattern of FIG. 7A is 0, the calculated similarity corresponding to the BNA pattern of FIG. 7B is 0, the calculated similarity corresponding to the BNA pattern of FIG. 7C is 0.06, and the calculated similarity corresponding to the BNA pattern of FIG. 7D is 0.
# [1] = system: healthy volunteer subjects; assay: BNA pattern analysis of EEG data during working memory test (encoding/retrieval), drug vs placebo; conditions: for effect on central and frontal activation in group BNA pattern / effect on fronto-parietal part / connectivity of group BNA pattern: group BNA patterns (FIGS. 10C-D, 10G-H) vs placebo
# [2] = system: healthy volunteer subjects; assay: BNA pattern analysis of EEG data during auditory oddball task, scopolamine vs placebo; conditions: for BNA pattern similarity to placebo group baseline BNA pattern: following scopolamine, oddball task
# Text: FIGS. 8A-D show associated subject-specific BNA patterns constructed from EEG data recorded from two healthy volunteer subjects. The black dots in FIGS. 8A-D show the locations of the EEG electrodes, and the color codes in these BNA patterns are the same as defined above. The subject-specific BNA patterns shown in FIGS. 8A-D describe the association of the subjects to a group of healthy subjects following treatment with a placebo drug and while performing an attention task related oddball task.
# FIGS. 8A and 8C are subject-specific BNA patterns constructed from EEG data collected from a first subject (FIG. 8A) and a second subject (FIG. 8C) following treatment with a placebo, and FIGS. 8B and 8D are subject-specific BNA patterns constructed from EEG data collected from the first subject (FIG. 8B) and the second subject (FIG. 8D) following treatment with a scopolamine drug. Scopolamine is an anticholinergic drug with inhibitory effect on M2-cholinergic receptors of excited type. It has an inhibitory effect on the cerebral cortex, typically inducing slight-anesthetic effect.
# All subjects were administered with Scopolamine 0.4 mg, and Saline serving as a placebo drug, on consecutive days, in a randomized order.
# In the auditory oddball target detection test, the subjects were requested to respond to auditory target stimuli that occur infrequently and irregularly within a series of standard stimuli. The standard stimulus was in the form of a 1000 Hz tone, and the target stimulus was in the form of a 2000 Hz tone. The intervals between two successive stimuli (standard or target) were 1.5 seconds. Each subject was exposed to a series of stimuli, of which 80% were standard stimuli and 10% were target stimuli. The additional 10% were background sounds (referred to as “novel stimuli”).
# All subjects underwent EEG recordings during the tests. ERPs were recorded using 64 Ag—AgCl active electrodes (ActiveTwo, Biosemi) attached to the scalp by located according to the 10-20 international system, and filled with a conducting gel (Signa, Parker).
# Two group BNA patterns (one BNA pattern for the placebo group and one BNA pattern for the scopolamine group), and several subject-specific BNA patterns were constructed according to the teachings of the present embodiments as described in Example 1 above. The similarities between the subject-specific BNA pattern and the group BNA patterns were calculated as described in Example 1 above, except for the following provisions on data selection.
# Two types of group BNA patterns were constructed in this example. A first type, referred to herein as a DIFF BNA pattern, described the activity that most differentiated between two groups or two conditions. In this type, data features that appeared in at least 11 subjects out of a maximum number of 15 subjects in one group, but a difference threshold (the number of subjects that had the pattern in one group minus the number of subjects that had the pattern in the other group) of 2 subjects, was used to construct the BNA pattern. […] The SI quantities for this type of BNA patterns were calculated as described in Example 1 above.
# [3] = system: healthy volunteer subjects; assay: Clinical observation of behavioral endpoint following treatment with scopolamine
# Description: A BNA pattern similarity was calculated for each of the subject-specific BNA patterns shown in FIGS. 8A-D. The calculated similarities are 0.937, 0.079, 1.0 and 0.94, respectively. It is recognized by the present inventors that these similarity values indicate that the responsivity to scopolamine is high for the first subject (FIGS. 8A and 8B) and low for the second subject (FIGS. 8C and 8D).
compound,measurement,setting,value
"COC(=O)C(c1ccccc1)C1CCCCN1 (stereo not shown) [MPH, methylphenidate]","responsiveness of the subject to the treatment, as indicated by similarity values",ADHD subjects; ADHD subject of FIGS. 6A-D,responsive to the treatment
same,BNA pattern similarity to the baseline BNA pattern for the untreated ADHD group,"ADHD subjects; ADHD subject of FIGS. 6A-D (FIG. 6B), following a single dose treatment with MPH, before treatment 0.73",0.19
same,BNA pattern similarity to the baseline BNA pattern for the treated ADHD group,"ADHD subjects; ADHD subject of FIGS. 6A-D (FIG. 6D), following a single dose treatment with MPH, before treatment 0.56",0.6
same,"responsiveness of the subject to the treatment, as indicated by similarity values",ADHD subjects; ADHD subject of FIGS. 7A-D,not responsive to the treatment
same,BNA pattern similarity to the group of untreated ADHD subjects,"ADHD subjects; different ADHD subject of FIGS. 7A-D (FIG. 7B), following treatment with MPH, before treatment 0",0
same,BNA pattern similarity to the group of ADHD subjects treated with MPH,"ADHD subjects; different ADHD subject of FIGS. 7A-D (FIG. 7D), following treatment with MPH, before treatment 0.06",0
CNC1(c2ccccc2Cl)CCCCC1=O (stereo not shown) [ketamine],effect on central and frontal activation in group BNA pattern,[1]; working memory test,increased central and frontal activation
same,effect on fronto-parietal part / connectivity of group BNA pattern,[1]; working memory test,No significant change
same,effect on right lateralization in group BNA pattern,"[1]; working memory test, group BNA patterns (FIGS. 10G-H) vs placebo",decreased right lateralization
CN1[C@@H]2C[C@@H](OC(=O)[C@H](CO)c3ccccc3)C[C@H]1[C@@H]1O[C@@H]12 [scopolamine],BNA pattern similarity to placebo group baseline BNA pattern,"[2]; first healthy subject (FIG. 8B), after placebo 0.937",0.079
same,"responsivity to scopolamine, as indicated by similarity values",[2]; first subject (FIGS. 8A and 8B),high
same,number of scopolamine subjects fulfilling the placebo pattern,"[2]; oddball test, detection of novel stimuli, Delta frequency pattern (FIGS. 29A-D), 14 in placebo group",0 subjects
same,number of subjects in the scopolamine group showing the scopolamine pattern (group-subject value),"[2]; oddball test, detection of target stimuli, Beta (12-18 Hz) pattern (FIGS. 28A-C), Scopolamine 0.4 mg, 15 subjects, 1 placebo subject",12 subjects
same,number of scopolamine subjects fulfilling the placebo pattern,"[2]; oddball test, detection of target stimuli, Delta frequency pattern (FIGS. 27A-D), Scopolamine 0.4 mg, 15 subjects, 12 in placebo group",4 subjects
same,pattern differentiation level,"[2]; placebo pattern, detection of novel stimuli (FIGS. 29A-D), placebo vs scopolamine group",14
same,pattern differentiation level,"[2]; placebo pattern, detection of target stimuli (FIGS. 27A-D), placebo vs scopolamine group",8
same,pattern differentiation level,"[2]; scopolamine pattern, detection of target stimuli (FIGS. 28A-C), scopolamine vs placebo group",11
same,BNA pattern similarity to placebo group baseline BNA pattern,"[2]; second healthy subject (FIG. 8D), after placebo 1.0",0.94
same,"responsivity to scopolamine, as indicated by similarity values",[2]; second subject (FIGS. 8C and 8D),low
same,decrease in behavioral endpoint,[3]; first subject,70%
same,change in behavioral endpoint,[3]; second subject,no change
same,pattern differentiation level,"[1]; encoding placebo DIFF BNA pattern, placebo vs scopolamine group",11
same,pattern differentiation level,"[1]; encoding scopolamine DIFF BNA pattern, scopolamine vs placebo group",10
same,pattern differentiation level,"[1]; retrieval placebo DIFF BNA pattern, placebo vs scopolamine group",13
same,pattern differentiation level,"[1]; retrieval scopolamine DIFF BNA pattern, scopolamine vs placebo group",14
same,number of scopolamine subjects fulfilling the encoding placebo DIFF BNA pattern,"[1]; working memory test, encoding process (FIGS. 10A, 32-34), 13 in placebo group",Two
same,number of subjects in the scopolamine group showing the encoding scopolamine DIFF BNA pattern (group-subject value),"[1]; working memory test, encoding process (FIGS. 10C, 35A-B), three placebo subjects",13 subjects
same,effect on central and frontal activation in group BNA pattern,[1]; working memory test,extensive compensatory central and frontal activation
same,effect on fronto-parietal part / connectivity of group BNA pattern,[1]; working memory test,low connectivity between frontal and parietal regions
same,number of scopolamine subjects fulfilling the retrieval placebo DIFF BNA pattern,"[1]; working memory test, retrieval process (FIGS. 10B, 30A-C), 14 in placebo group",One
same,number of subjects in the scopolamine group showing the retrieval scopolamine DIFF BNA pattern (group-subject value),"[1]; working memory test, retrieval process (FIGS. 10D, 31A-E), one placebo subject",15 subjects
